Key:
R580A-TG2 = target: T1, R580A-TG2 (Homo sapiens, UniProt P21980, R580A); test: In situ transamidating assay, SH-SY5Y cells stably overexpressing R580A-TG2; assay type: cell-based; settings: 10 μM, 16-20 h, no calcium stimulation
T1 construct: expressed in transfected cells
T1 sequence (P21980 1-687 R580A): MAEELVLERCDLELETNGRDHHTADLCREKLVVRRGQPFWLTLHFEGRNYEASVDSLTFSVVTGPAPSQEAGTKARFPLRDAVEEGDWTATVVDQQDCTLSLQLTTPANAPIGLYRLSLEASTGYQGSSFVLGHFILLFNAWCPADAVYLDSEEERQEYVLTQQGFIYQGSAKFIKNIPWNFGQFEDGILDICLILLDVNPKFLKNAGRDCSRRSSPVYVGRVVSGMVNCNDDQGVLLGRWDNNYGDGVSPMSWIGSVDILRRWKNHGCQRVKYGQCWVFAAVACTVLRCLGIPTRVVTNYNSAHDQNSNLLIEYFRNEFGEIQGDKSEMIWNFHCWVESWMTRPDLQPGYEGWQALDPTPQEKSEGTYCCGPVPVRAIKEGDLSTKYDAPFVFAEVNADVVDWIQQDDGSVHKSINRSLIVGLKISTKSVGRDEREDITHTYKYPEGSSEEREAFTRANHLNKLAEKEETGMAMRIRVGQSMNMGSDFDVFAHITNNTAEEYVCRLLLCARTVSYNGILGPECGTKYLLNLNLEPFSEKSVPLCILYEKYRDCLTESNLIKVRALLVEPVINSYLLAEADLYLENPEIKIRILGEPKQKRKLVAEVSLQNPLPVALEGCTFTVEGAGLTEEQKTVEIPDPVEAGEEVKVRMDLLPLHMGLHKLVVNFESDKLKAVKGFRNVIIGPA
Description: These inhibitors were then tested in cell culture models for their efficiency in inhibiting in situ transamidating activity. […] For these studies we used SH-SY5Y neuroblastoma cells stably overexpressing R580A-TG2.
In situ transglutaminase assay. In situ transamidating activity measurement was conducted as described previously (Gundemir, S. and Johnson, G. V., PLoS ONE 4(7):e6123, 2009) with slight modifications. Briefly, 24 h after transfection of HEK 293A cells, normal growth media was changed to fresh growth media with 5% FBS containing given amount of ionomycin (0-1.5 μM) and 0.1 mM 5-(biotinamido)pentylamine (BAP) (Pierce). 3 h later, cells were collected in media, pelleted, washed once with PBS and resuspended in homogenization buffer (50 mM Tris-Cl, pH: 7.5, 150 mM NaCl, 1 mM EDTA), sonicated on ice. In a high protein binding 96-well plate (Falcon), 10 μg of protein was loaded in a total of 50 μL homogenization buffer and the plate was incubated at 4° C. overnight. The next day, 200 μL of blocking buffer (5% BSA, 0.01% Tween 20 in borate saline [100 mM boric acid, 20 mM Na-borate and 0.76 mM NaCl]) was added to each sample and the plate was incubated at 37° C. for 1 h. Each well was then rinsed 3 times with rinsing buffer (1% BSA, 0.01% Tween 20 in borate saline) and incubated with 1 μg/μL Horseradish peroxidase conjugated neutravidin (Pierce) in a total of 100 μL rinsing buffer at room temperature for 1 h. The samples were washed 4 times with rinsing buffer, and peroxidase reaction was conducted in the dark in 200 μL of OPD buffer (50 mL of 0.1 M Na2HPO4, 50 mM citric acid, 1 tablet o-phenylenediamine (Sigma Aldrich), 0.0006% H2O2). After 20 minutes, the reaction was stopped by addition of 50 μL of 1 M sulfuric acid and read at 493 nm wavelength.

SCC-13 cells = test: Matrigel invasion assay, SCC-13 cells; assay type: cell-based, human
Description: Invasion assay. Matrigel was diluted in 0.01 M Tris-HCl/0.7% NaCl, filter sterilized and 0.1 ml was used to coat individual BD BioCoat inserts (Millicell-PCF, 0.4 μm, 12 mm, PIHP01250). Cells (25,000) were plated in 100 μl in growth medium, supplemented with 1% FCS, in the upper chamber. The lower chamber contained growth medium supplemented with 10% FCS. After migration, the membranes were harvested and excess cells were removed from the upper membrane surface. The membrane was fixed in 4% paraformaldehyde, stained with 1 μg/m DAPI, and the underside of the membrane was photographed with an inverted fluorescent microscope and the number of cells counted.
Invasion assay. Matrigel (BD Biolabs) was diluted into 2 mL of 0.01 M Tris-HC/0.7% NaCl to a final concentration of 300 μg/mL, filter sterilized and 0.1 mL was added per BD BioCoat cell insert. After 2 hours, near-confluent SCC13-TG2-shRNA2 and SCC13-Control-shRNA cells were harvested and 25,000 cells were plated in 100 μL of growth media containing 1% FCS atop the Matrigel layer. Growth medium containing 10% FCS was added to the bottom chamber followed by an overnight incubation at 37° C. The following day a cotton swab was used to remove cells from the upper side of the membrane, the membrane was rinsed with phosphate-buffered saline, fixed with 4% paraformaldehyde for 10 min, washed again, and stained with 1 μg/mL DAPI for 10 min. The underside of the membrane was viewed with an inverted fluorescent microscope and nuclei were counted.
Invasion assay. Matrigel (BD Biolabs) was diluted into 2 ml of 0.01 M Tris-HC/0.7% NaCl to a final concentration of 300 μg/ml, filter sterilized, and 0.1 ml was added per BD BioCoat cell insert (8 microns pore size, surface area 0.3 cm2). After 2 h, near-confluent SCC-13 cells were harvested and 25,000 cells were plated in 100 μl of growth media containing 1% FCS atop the Matrigel layer. Growth medium containing 10% FCS was added to the bottom chamber followed by an overnight incubation at 37° C. The following day a cotton swab was used to remove cells from the upper side of the membrane, the membrane was rinsed with PBS, fixed with 4% paraformaldehyde, washed again, and stained with 1 μg/ml DAPI for 10 min. The underside of the membrane was viewed with an inverted fluorescent microscope, and nuclei were counted (Adhikary, G. et al., PLoS One 8:e84324, 2013).

[1] = test system: rat primary cortical neurons; test: Neuronal viability by resazurin assay; assay type: cell-based; settings: 24 h
Description: DMSO was used as a control. At the end of the treatment, neuronal viability was measured by resazurin assay. Results are shown as a percent of DMSO control (±SEM) (N=3).

Compound	resting (basal) transamidating activity of R580A-TG2 (R580A-TG2)	matrigel invasion (SCC-13 cells; 20 μM pretreatment 1 hour, 24 hours)	invasion (SCC-13 cells; 20 μM pretreatment 2 h, 30 h)	matrigel invasion (SCC-13 cells; 20 μM, 24 h)	neuronal viability / tolerability [1]
C=CC(=O)NCCCC[C@H](NC(=O)OCc1ccccc1)C(=O)NCCOCCOCCNS(=O)(=O)c1cccc2c(N(C)C)cccc12 [NC9]	inhibit resting transamidating activity of R580A-TG2	reduced matrigel invasion	reduced	inhibited	well tolerated up to 10 μM concentration
C=CC(=O)NCCCC[C@H](NC(=O)OCc1ccccc1)C(=O)N1CCN(S(=O)(=O)c2cccc3c(N(C)C)cccc23)CC1 [VA4, (S)-benzyl(6-acrylamido-1-(4-((5-(dimethylamino)naphthalen-1-yl)sulfonyl)piperazin-1-yl)-1-oxohexan-2-yl)carbamate]	inhibit resting transamidating activity of R580A-TG2			inhibited	well tolerated up to 10 μM concentration
C=CC(=O)NCCCC[C@H](NC(=O)OCc1ccccc1)C(=O)N1CCN(C(=O)c2cc3ccc(O)cc3oc2=O)CC1 [VA5, (S)-Benzyl(6-acrylamido-1-(4-(7-hydroxy-2-oxo-2H-chromene-3-carbonyl)piperazin-1-yl)-1-oxohexan-2-yl)carbamate]	inhibit resting transamidating activity of R580A-TG2			inhibited	well tolerated up to 10 μM concentration
